Assay results as given in patent publication US8818734B1, “Peptide ligands for sperm DNA fragmentation assay” (priority 2011, dated 2014).

Tests used:
Type in all cases: cell-based
[1] = tested on: human spermatozoa; experiment: Induction of single-strand DNA damage with H2O2: DW1 staining of ethanol-fixed slides, SCDt, alkaline comet assay; details: 0.03 and 0.3% H2O2, 30 min, p<0.05
Procedure: Five human sperm samples were washed in PBS (220 g, 10 min), diluted to a concentration of 10×10^6 spermatozoa/ml in PBS (Fischer Scientific International, Pittsburgh, Pa., USA) and divided into three aliquots of 200 μl each, allowing a control group to be compared with the treated cells. To induce single-strand DNA damage (Yamamoto, 1969), spermatozoa were incubated with 0.03 and 0.3% H2O2 (Sigma, St Louis, Mo., USA) for 30 min at room temperature.
(§1) Control, H2O2 (0.03% and 0.3%) and Bleomycin (2 and 4 mg/ml)-treated sperm samples were used for this purpose. Ten fields per sample were captured as described above in the Fluorescence microscopy evaluation and image capture section using a fixed exposure time. A total of 300 sperm cells per slide were analysed.
One way-ANOVA and Dunnett's Test for multiple comparisons with a single control were used to detect significant differences in the frequencies of SDF calculated by SCDt and alkaline comet assay between the control and each one of the treatments, 0.03% and 0.3% H2O2.

[2] = tested on: human spermatozoa; experiment: Induction of double-strand DNA damage with Bleomycin: DW1 staining of ethanol-fixed slides, SCDt, neutral comet assay; details: 2 and 4 mg/ml Bleomycin, 3 h, 37° C., p<0.05
Procedure: Five human sperm samples were washed in PBS (220 g, 10 min), diluted to a concentration of 10×10^6 spermatozoa/ml in PBS (Fischer Scientific International, Pittsburgh, Pa., USA) and divided into three aliquots of 200 μl each, allowing a control group to be compared with the treated cells. To induce double-strand DNA damage, spermatozoa were incubated with 2 and 4 mg/ml of Bleomycin (Sigma, St Louis, Mo., USA) for 3 h at 37° C.
as §1
A Mann-Whitney U test was used to detect significant differences in the frequencies of SDF calculated by SCDt and neutral comet assay between the control and each one of the treatments, 2 mg/ml and 4 mg/ml of bleomycin.

[3] = tested on: spermatozoa; experiment: Access of TAT-modified DW1 to the cell interior; details: DW1 modified to include TAT peptide YGRKKRRQRRRG
Excerpt: However, it is possible that different TAT configurations or the use of an alternative protein transduction domain might allow penetration into the cell interior. […] It is still possible that the peptide could be used to choose spermatozoa for fertilization using ICSI following removal of membranes using detergent. Previous studies have shown that sperm treated in this way remain fertilizations competent (Kasai et al., 1999). […] Electroporation is known not to inhibit sperm viability and ICSI procedures.

Molecule: OO [H2O2, Hydrogen Peroxide]
- frequency of sperm cells with fragmented DNA by SCDt (SCDt-SDF) and alkaline comet assay (ssSDF) [1]: significant increase

Molecule: Bleomycin
- frequency of sperm cells with fragmented DNA by SCDt (SCDt-SDF) and neutral comet assay (dsSDF) [2]: significantly increased

Molecule: DW1 (SEQ ID NO:1) to include a TAT peptide: DW1 modified to include a TAT peptide (YGRKKRRQRRRG), a transduction sequence (GSRAHSSHLKSKKGQSTSRHKKYGRKKRRQRRRG; listed as Homo sapiens)
- access to the cell interior [3]: failed to improve access to the cell interior
